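Interpolation was linear, between the two tested concentrations surrounding the appropriate level; five concentrations were tested over 48 hours in 96-well plates. GI50 is the concentration that inhibits growth by half.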 Active and inactive are the calls of the source. No stated cut-off is given here; in the data, active = GI50 up to about 1.1 µM and inactive = higher.
Columns and labels:
Experiment in all cases: growth of human tumour cells (NCI), 48 h
A498 = test system: A498
HOP-92 = test system: HOP-92
HOP-62 = test system: HOP-62
HL-60 = test system: HL-60
XF498 = test system: XF498
DMS-273 = test system: DMS-273
CAKI-1 = test system: CAKI-1
M14 = test system: M14
DMS-114 = test system: DMS-114
IGROV-1 = test system: IGROV-1
SF-539 = test system: SF-539
UACC-62 = test system: UACC-62
OVCAR-4 = test system: OVCAR-4
HCC 2998 = test system: HCC 2998
SK-OV-3 = test system: SK-OV-3
SF-268 = test system: SF-268
CCRF-CEM = test system: CCRF-CEM
SN12C = test system: SN12C
LXFL 529 = test system: LXFL 529
SNB-75 = test system: SNB-75
DLD-1 = test system: DLD-1
SR = test system: SR
SK-MEL-2 = test system: SK-MEL-2
NCI-H23 = test system: NCI-H23
UO-31 = test system: UO-31
K562 = test system: K562
COLO 205 = test system: COLO 205
M19-MEL = test system: M19-MEL
786-0 = test system: 786-0
SNB-78 = test system: SNB-78
HCT-116 = test system: HCT-116
MOLT-4 = test system: MOLT-4
ACHN = test system: ACHN
RPMI-8226 = test system: RPMI-8226
NCI-H226 = test system: NCI-H226
Malme-3M = test system: Malme-3M
SK-MEL-28 = test system: SK-MEL-28
NCI-H522 = test system: NCI-H522
A549 = test system: A549
SW-620 = test system: SW-620
EKVX = test system: EKVX
SF-295 = test system: SF-295
KM12 = test system: KM12
SK-MEL-5 = test system: SK-MEL-5
UACC-257 = test system: UACC-257
OVCAR-8 = test system: OVCAR-8
HT-29 = test system: HT-29
OVCAR-3 = test system: OVCAR-3
TK-10 = test system: TK-10
SNB-19 = test system: SNB-19
HOP-18 = test system: HOP-18
NCI-H460 = test system: NCI-H460
OVCAR-5 = test system: OVCAR-5
LOX IMVI = test system: LOX IMVI
U-251 = test system: U-251
RXF 393 = test system: RXF 393
HCT-15 = test system: HCT-15
KM-20L2 = test system: KM-20L2

Measured: GI50

Cc1ncc(CBr)c(CBr)c1O
inactive: A498 > 100 µM | HOP-92 > 100 µM | HOP-62 > 100 µM | HL-60 60.8 µM | XF498 > 100 µM | DMS-273 > 100 µM | CAKI-1 > 100 µM | M14 > 100 µM | DMS-114 > 100 µM | IGROV-1 > 100 µM | SF-539 > 100 µM | UACC-62 > 100 µM | OVCAR-4 > 100 µM | HCC 2998 > 100 µM | SK-OV-3 > 100 µM | SF-268 > 100 µM | CCRF-CEM 44.7 µM | SN12C > 100 µM | LXFL 529 > 100 µM | SNB-75 > 100 µM | DLD-1 > 100 µM | SR > 100 µM | SK-MEL-2 > 100 µM | NCI-H23 > 100 µM | UO-31 89.1 µM | K562 > 100 µM | COLO 205 > 100 µM | M19-MEL > 100 µM | 786-0 > 100 µM | SNB-78 > 100 µM | HCT-116 > 100 µM | MOLT-4 > 100 µM | ACHN > 100 µM | RPMI-8226 > 100 µM | NCI-H226 > 100 µM | Malme-3M > 100 µM | SK-MEL-28 > 100 µM | NCI-H522 55.3 µM

N#CCCN(c1ccc(/C=N/c2ccccc2)cc1)S(=O)(=O)c1ccccc1
inactive: A498 > 100 µM | HOP-92 > 100 µM | A549 > 100 µM | HOP-62 23.7 µM | HL-60 31.1 µM | DMS-273 > 100 µM | CAKI-1 > 100 µM | M14 8.93 µM | DMS-114 > 100 µM | IGROV-1 > 100 µM | SF-539 > 100 µM | UACC-62 3.27 µM | SW-620 > 100 µM | OVCAR-4 > 100 µM | EKVX 35.7 µM | HCC 2998 5.22 µM | SK-OV-3 > 100 µM | SF-268 > 100 µM | CCRF-CEM > 100 µM | SF-295 12.4 µM | SN12C > 100 µM | LXFL 529 4.44 µM | SNB-75 > 100 µM | DLD-1 > 100 µM | SR > 100 µM | SK-MEL-2 > 100 µM | NCI-H23 > 100 µM | KM12 16.5 µM | UO-31 17 µM | K562 2.97 µM | SK-MEL-5 > 100 µM | UACC-257 > 100 µM | OVCAR-8 > 100 µM | COLO 205 > 100 µM | M19-MEL > 100 µM | 786-0 > 100 µM | SNB-78 > 100 µM | HCT-116 > 100 µM | HT-29 17 µM | MOLT-4 > 100 µM | OVCAR-3 > 100 µM | RPMI-8226 > 100 µM | TK-10 > 100 µM | NCI-H226 > 100 µM | Malme-3M 41.4 µM | SK-MEL-28 > 100 µM | SNB-19 > 100 µM | NCI-H522 > 100 µM
active: XF498 0.834 µM

COc1ccccc1NS(=O)(=O)c1cc(C(C)(C)C)ccc1OCCOc1ccc(C(C)(C)C)cc1S(=O)(=O)Nc1ccccc1OC
> 100 µM: HCT-15
inactive: A498 > 100 µM | HOP-92 > 100 µM | A549 > 100 µM | HOP-62 > 100 µM | HL-60 > 100 µM | DMS-273 > 100 µM | HOP-18 > 100 µM | CAKI-1 > 100 µM | M14 > 100 µM | DMS-114 > 100 µM | IGROV-1 > 100 µM | SF-539 > 100 µM | UACC-62 > 100 µM | SW-620 > 100 µM | OVCAR-4 > 100 µM | EKVX > 100 µM | HCC 2998 > 100 µM | SK-OV-3 > 100 µM | SF-268 > 100 µM | NCI-H460 > 100 µM | CCRF-CEM > 100 µM | SF-295 > 100 µM | OVCAR-5 > 100 µM | SN12C > 100 µM | LOX IMVI > 100 µM | SNB-75 > 100 µM | DLD-1 > 100 µM | U-251 > 100 µM | SK-MEL-2 > 100 µM | NCI-H23 > 100 µM | KM12 45.4 µM | UO-31 > 100 µM | K562 > 100 µM | SK-MEL-5 > 100 µM | RXF 393 > 100 µM | UACC-257 > 100 µM | OVCAR-8 > 100 µM | COLO 205 > 100 µM | M19-MEL > 100 µM | 786-0 > 100 µM | SNB-78 > 100 µM | HCT-116 > 100 µM | HT-29 > 100 µM | MOLT-4 > 100 µM | OVCAR-3 > 100 µM | ACHN > 100 µM | RPMI-8226 > 100 µM | TK-10 > 100 µM | NCI-H226 > 100 µM | Malme-3M > 100 µM | SK-MEL-28 > 100 µM | SNB-19 > 100 µM

C[C@]12CCC(=O)C=C1CC[C@@H]1C2CC[C@]2(C)Nc3[nH]ncc3CC12 (stereo partly drawn)
> 100 µM: HCT-15
inactive: A498 > 100 µM | A549 > 100 µM | HOP-62 > 100 µM | HL-60 > 100 µM | XF498 > 100 µM | DMS-273 > 100 µM | CAKI-1 > 100 µM | M14 > 100 µM | DMS-114 > 100 µM | IGROV-1 > 100 µM | SF-539 > 100 µM | UACC-62 > 100 µM | SW-620 > 100 µM | OVCAR-4 > 100 µM | EKVX 77.4 µM | HCC 2998 > 100 µM | SK-OV-3 > 100 µM | NCI-H460 > 100 µM | CCRF-CEM > 100 µM | SF-295 94.2 µM | OVCAR-5 > 100 µM | LXFL 529 > 100 µM | SNB-75 30.3 µM | DLD-1 > 100 µM | U-251 > 100 µM | SK-MEL-2 > 100 µM | NCI-H23 > 100 µM | KM12 > 100 µM | UO-31 > 100 µM | K562 > 100 µM | SK-MEL-5 > 100 µM | RXF 393 > 100 µM | UACC-257 > 100 µM | OVCAR-8 > 100 µM | M19-MEL > 100 µM | 786-0 > 100 µM | SNB-78 > 100 µM | HCT-116 > 100 µM | KM-20L2 > 100 µM | HT-29 > 100 µM | MOLT-4 > 100 µM | OVCAR-3 > 100 µM | ACHN > 100 µM | RPMI-8226 > 100 µM | TK-10 > 100 µM | NCI-H226 60.3 µM | Malme-3M > 100 µM | SK-MEL-28 > 100 µM

CC[n+]1c(-c2ccccc2)c2cc(N)ccc2c2ccc(N)cc21
inactive: A549 9.57 µM | HL-60 4.3 µM | HOP-18 3.59 µM | CAKI-1 11.8 µM | DMS-114 1.29 µM | IGROV-1 1.42 µM | SF-539 1.48 µM | UACC-62 1.52 µM | SW-620 2.3 µM | OVCAR-4 6.68 µM | HCC 2998 2.67 µM | NCI-H460 3.3 µM | SF-295 3 µM | OVCAR-5 29.6 µM | SN12C 2.51 µM | NCI-H23 1.31 µM | KM12 2.95 µM | K562 2.35 µM | UACC-257 2.65 µM | COLO 205 2.12 µM | M19-MEL 1.88 µM | HCT-116 2.79 µM | KM-20L2 3.91 µM | MOLT-4 1.64 µM | OVCAR-3 3.06 µM | ACHN 22.1 µM | Malme-3M 2.24 µM
active: DMS-273 0.481 µM | LXFL 529 0.668 µM
